Experimental data: paper PMC11947619, “Molecular mechanism of Mad2 conformational conversion promoted by the Mad2‐interaction motif of Cdc20” (Protein Science : A Publication of the Protein Society, 2025)
Residues, ends and D or L forms follow the SMILES beside them.

Key:
O‐Mad2^∆C10 = molecular target: T1, O‐Mad2^∆C10 (Homo sapiens, UniProt Q13257); assay: NMR titration / HSQC: Cdc20^MIM with O-Mad2^∆C10 (trapped open state); type: binding; settings: 25°C; for binding to Mad2^∆C10: NMR titration / HSQC, two-fold molar excess of peptide, spectra within 15 minutes (Figure S6)
T1 construct: His6-DoubleStrep-TEV (N); made in house
T1 sequence (Q13257 1-195): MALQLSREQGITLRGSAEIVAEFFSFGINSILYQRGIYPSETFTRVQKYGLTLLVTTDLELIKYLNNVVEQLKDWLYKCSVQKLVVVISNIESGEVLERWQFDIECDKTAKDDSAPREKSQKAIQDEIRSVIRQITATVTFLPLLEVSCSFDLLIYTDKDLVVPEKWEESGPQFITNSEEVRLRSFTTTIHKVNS
Text: The cloning of human wild‐type Mad2 and the mutant Mad2^R133A by the USER® method (NEB) into the pRSFDuet‐1 vector (71341‐3, Sigma‐Aldrich) with a His6‐DoubleStrep‐TEV tag at its N‐terminus was described previously (Fischer et al., [2022]). For this study, Mad2 mutants were generated as follows. The Mad2^LL expression construct was generated from the wild‐type Mad2 expression vector (Fischer et al., [2022]) by replacing residues 109–117 (TAKDDSAPR) with GSG. Mad2^ΔC10 and Mad2^Δβ7/β8 were modified from wild‐type Mad2 expression construct by deleting residues 196–205 and 166–205, respectively. Mad2^LL/R133A was modified by substituting Ala for Arg133 from the Mad2^LL expression construct. Mad2^LL/ΔC10 was modified from Mad2^LL by deleting residues 196–205. Mad2^L13A/R133A was generated from the Mad2^R133A mutant. Site‐directed mutagenesis of Mad2 was completed using the QuikChangeTM Lightning Site‐Directed Mutagenesis Kit (Agilent) developed by Stratagene Inc. (La Jolla, CA).
All NMR data on Mad2 were acquired in a 5 mm tube at 25°C in 20 mM HEPES, pH 7.0, 100 mM NaCl, 1 mM TCEP, 5% D2O. Backbone assignment experiments and all spectra, unless otherwise denoted, were collected using an in‐house Bruker 800 MHz Avance III spectrometer, equipped with a triple resonance TCI CryoProbe. 2D spectra were acquired using BEST ^1H,^15N‐TROSY HSQC, with 16 scans and a recycle delay of 400 ms, giving an experimental time of 12 min per spectrum. A Bruker 950 MHz Avance III spectrometer (MRC Biomedical NMR Centre, Francis Crick Institute) was used for the residue conversion rate analysis and the characterization of Mad2 dimers. Most experiments, including all backbone experiments, were acquired with 100 μM samples; the residue‐specific conversion rate analysis and characterization of Mad2 dimers utilized 200 μM samples and 300 μM samples, respectively.
Mad2LL (grey), Mad2∆C10 (green) and Mad2LL/∆C10 (purple). […] 15N{1H}‐ heteronuclear NOE were measured at 298 K. Regions that are highly dynamic are highlighted in yellow. e. […]

O‐Mad2^WT = molecular target: T2, O‐Mad2^WT (Homo sapiens, UniProt Q13257); assay: NMR: conversion of monomeric wild-type O-Mad2^WT; type: biochemical; settings: O-Mad2^WT 300 μM, two-fold molar excess peptide, HSQC, 25°C
T2 construct: MD simulations on the full‐length O‐Mad2:C‐Mad2:Mad1^MIM complex; His6-DoubleStrep-TEV (N); made in house
T2 sequence (Q13257 whole entry): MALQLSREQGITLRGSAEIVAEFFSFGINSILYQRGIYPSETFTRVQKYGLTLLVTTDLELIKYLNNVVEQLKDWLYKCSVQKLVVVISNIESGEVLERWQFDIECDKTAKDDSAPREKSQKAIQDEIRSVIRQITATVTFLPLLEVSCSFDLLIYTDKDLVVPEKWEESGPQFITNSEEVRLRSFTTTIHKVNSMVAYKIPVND
Method: FIGURE 6 O‐Mad2 retains its dynamic and structural properties in the O‐Mad2:C‐Mad2 dimer. (a, c) HSQC spectra of 300 μM wild‐type O‐Mad2^WT (a, light blue) and O‐Mad2^WT:(C‐Mad2^WT:Mad1^MIM) (c, blue). The schematics show the conformation of Mad2 as indicated by the tryptophan side‐chain resonances and their oligomeric states as determined by SEC‐MALS (insets). The SEC peaks are labeled with their molecular masses (kDa), where the theoretical molecular masses for monomeric and dimeric Mad2 are 23.5 and 47.0 kDa, respectively. For the dimeric samples, only one of the monomers was isotopically labeled and observable by NMR. Distinct chemical shift differences were also observed for Gly50 in O‐Mad2 and C‐Mad2, and its resonances are marked in the spectra. Cdc20^MIM‐123‐152 was added at two‐fold molar excess to O‐Mad2^WT (a), and O‐Mad2^WT:(C‐Mad2^WT:Mad1^MIM) (c). (b, d) This generated C‐Mad2^WT‐Cdc20^MIM (b, brown), and (C‐Mad2^WT:Cdc20^MIM):(C‐Mad2^WT:Mad1^MIM) (d, yellow), respectively. Their spectra are overlaid with that of C‐Mad2^L13A/R133A:Cdc20^MIM (red) for comparison. (e) Cα RMSF were determined from MD simulations at 300 K for monomeric O‐Mad2 (blue line) and O‐Mad2 in a O‐Mad2:C‐Mad2:Mad1^MIM dimer (brown dotted line). […]
For wild‐type Mad2, the protein was expressed as O‐Mad2^WT using the conditions described above. […]

Row | binding to Mad2^∆C10 (O‐Mad2^∆C10) | O- to C-Mad2 conversion, in words (O‐Mad2^∆C10; O-Mad2^∆C10 100 μM, two-fold molar excess peptide, 24 h time course) | Molecule | conversion of O-Mad2^WT, in words (O‐Mad2^WT)
1 | No binding | eliminated | EHQKAWALNLNGFDVEEAKILRLSGKPQ [Cdc20^MIM‐111‐138, Cdc20^MIM peptide spanning Cdc20 residues 111–138] | –
2 | No binding | – | CC[C@H](C)[C@H](NC(=O)[C@H](CCCCN)NC(=O)[C@H](C)NC(=O)[C@H](CCC(=O)O)NC(=O)[C@H](CCC(=O)O)NC(=O)[C@@H](NC(=O)[C@H](CC(=O)O)NC(=O)[C@@H](N)Cc1ccccc1)C(C)C)C(=O)N[C@@H](CC(C)C)C(=O)N[C@@H](CCCNC(=N)N)C(=O)N[C@@H](CC(C)C)C(=O)N[C@@H](CO)C(=O)NCC(=O)N[C@@H](CCCCN)C(=O)N1CCC[C@H]1C(=O)N[C@@H](CCC(N)=O)C(=O)N[C@@H](CC(N)=O)C(=O)N[C@@H](C)C(=O)N1CCC[C@H]1C(=O)N[C@@H](CCC(=O)O)C(=O)NCC(=O)N[C@@H](Cc1ccc(O)cc1)C(=O)N[C@@H](CCC(N)=O)C(=O)N[C@@H](CC(N)=O)C(=O)N[C@@H](CCCNC(=N)N)C(=O)N[C@@H](CC(C)C)C(=O)N[C@@H](CCCCN)C(=O)N[C@H](C(=O)N[C@@H](CC(C)C)C(=O)N[C@@H](Cc1ccc(O)cc1)C(=O)O)C(C)C [Cdc20^MIM‐123‐152] (H-FDVEEAKILRLSGKPQNAPEGYQNRLKVLY-OH; N-terminus and C-terminus assumed) | converted to C‐Mad2 upon binding Cdc20^MIM
